Assay: xn = mol fraction of the nth substance listed
Settings: Liquid, Vibrating tube method

CCCCCCCCCCCCC [tridecane] + O=C=O
Settings | mass density [kg/m3]
323.16 K, 14000 kPa, x2 = 0.2526 | 751.2
323.16 K, 14000 kPa, x2 = 0.7549 | 788.1
323.16 K, 15000 kPa, x2 = 0.0955 | 748.5
323.16 K, 15000 kPa, x2 = 0.2526 | 752.1
323.16 K, 15000 kPa, x2 = 0.7549 | 791.5
323.16 K, 16000 kPa, x2 = 0.0955 | 749.2
323.16 K, 16000 kPa, x2 = 0.2526 | 752.9
323.16 K, 16000 kPa, x2 = 0.7549 | 794.6
323.16 K, 17000 kPa, x2 = 0.0955 | 750
323.16 K, 17000 kPa, x2 = 0.2526 | 753.7
323.16 K, 17000 kPa, x2 = 0.7549 | 798.1
323.16 K, 18000 kPa, x2 = 0.0955 | 750.7
323.16 K, 18000 kPa, x2 = 0.2526 | 754.4
323.16 K, 18000 kPa, x2 = 0.7549 | 801.2
323.16 K, 19000 kPa, x2 = 0.0955 | 751.4
323.16 K, 19000 kPa, x2 = 0.2526 | 755.2
323.16 K, 19000 kPa, x2 = 0.7549 | 804.1
323.16 K, 20000 kPa, x2 = 0.0955 | 752.1
323.16 K, 20000 kPa, x2 = 0.2526 | 755.9
323.16 K, 20000 kPa, x2 = 0.7549 | 807
323.16 K, 21000 kPa, x2 = 0.0955 | 752.8
323.16 K, 21000 kPa, x2 = 0.2526 | 756.6
323.16 K, 21000 kPa, x2 = 0.7549 | 809.5
323.16 K, 22000 kPa, x2 = 0.0955 | 753.4
323.16 K, 22000 kPa, x2 = 0.2526 | 757.3
323.16 K, 22000 kPa, x2 = 0.7549 | 812.4
323.16 K, 23000 kPa, x2 = 0.0955 | 754.1
323.16 K, 23000 kPa, x2 = 0.2526 | 758
323.16 K, 23000 kPa, x2 = 0.7549 | 815
323.16 K, 24000 kPa, x2 = 0.0955 | 754.7
323.16 K, 24000 kPa, x2 = 0.2526 | 758.7
323.16 K, 24000 kPa, x2 = 0.7549 | 817.5
323.16 K, 25000 kPa, x2 = 0.0955 | 755.3
323.16 K, 25000 kPa, x2 = 0.2526 | 759.3
323.19 K, 8000 kPa, x2 = 0.5259 | 758.8
323.19 K, 9000 kPa, x2 = 0.5259 | 760.1
323.19 K, 10000 kPa, x2 = 0.5259 | 761.4
323.19 K, 11000 kPa, x2 = 0.5259 | 762.6
323.19 K, 12000 kPa, x2 = 0.5259 | 763.8
323.19 K, 13000 kPa, x2 = 0.5259 | 764.9
323.19 K, 14000 kPa, x2 = 0.5259 | 766
323.19 K, 15000 kPa, x2 = 0.5259 | 767.2
323.19 K, 16000 kPa, x2 = 0.5259 | 768.2
323.19 K, 17000 kPa, x2 = 0.5259 | 769.3
323.19 K, 18000 kPa, x2 = 0.5259 | 770.4
323.19 K, 19000 kPa, x2 = 0.5259 | 771.4
323.19 K, 20000 kPa, x2 = 0.5259 | 772.4
323.19 K, 21000 kPa, x2 = 0.5259 | 773.3
323.19 K, 22000 kPa, x2 = 0.5259 | 774.3
323.19 K, 23000 kPa, x2 = 0.5259 | 775.3
323.19 K, 24000 kPa, x2 = 0.5259 | 776.2
323.19 K, 25000 kPa, x2 = 0.5259 | 777
333.14 K, 13000 kPa, x2 = 0.8978 | 737.1
333.14 K, 14000 kPa, x2 = 0.8978 | 745.4
333.14 K, 15000 kPa, x2 = 0.8978 | 754
333.14 K, 16000 kPa, x2 = 0.8978 | 761.2
333.14 K, 17000 kPa, x2 = 0.8978 | 767.9
333.14 K, 18000 kPa, x2 = 0.8978 | 774.1
333.14 K, 19000 kPa, x2 = 0.8978 | 779.5
333.14 K, 20000 kPa, x2 = 0.8978 | 784.8
333.14 K, 21000 kPa, x2 = 0.8978 | 789.8
333.14 K, 22000 kPa, x2 = 0.8978 | 794.7
333.14 K, 23000 kPa, x2 = 0.8978 | 799.2
333.14 K, 24000 kPa, x2 = 0.8978 | 803.5
333.14 K, 25000 kPa, x2 = 0.8978 | 807.8
333.16 K, 8000 kPa, x2 = 0.5259 | 749
333.16 K, 9000 kPa, x2 = 0.5259 | 750.4
333.16 K, 10000 kPa, x2 = 0.5259 | 751.7
333.16 K, 11000 kPa, x2 = 0.5259 | 753
333.16 K, 12000 kPa, x2 = 0.5259 | 754.2
333.16 K, 13000 kPa, x2 = 0.5259 | 755.5
333.16 K, 14000 kPa, x2 = 0.5259 | 756.7
333.16 K, 15000 kPa, x2 = 0.5259 | 757.9
333.16 K, 16000 kPa, x2 = 0.5259 | 759
333.16 K, 17000 kPa, x2 = 0.5259 | 760.2
333.16 K, 18000 kPa, x2 = 0.5259 | 761.3
333.16 K, 19000 kPa, x2 = 0.5259 | 762.4
333.16 K, 20000 kPa, x2 = 0.5259 | 763.4
333.16 K, 21000 kPa, x2 = 0.5259 | 764.5
333.16 K, 22000 kPa, x2 = 0.5259 | 765.5
333.16 K, 23000 kPa, x2 = 0.5259 | 766.5
333.16 K, 24000 kPa, x2 = 0.5259 | 767.5
333.16 K, 25000 kPa, x2 = 0.5259 | 768.5
333.28 K, 12000 kPa, x2 = 0.7549 | 762.3
333.28 K, 13000 kPa, x2 = 0.7549 | 766.5
333.28 K, 14000 kPa, x2 = 0.7549 | 769.6
333.28 K, 15000 kPa, x2 = 0.7549 | 772.6
333.28 K, 16000 kPa, x2 = 0.7549 | 775.6
333.28 K, 17000 kPa, x2 = 0.7549 | 778.6
333.28 K, 18000 kPa, x2 = 0.7549 | 781.5
333.28 K, 19000 kPa, x2 = 0.7549 | 784.5
333.28 K, 20000 kPa, x2 = 0.7549 | 787.4
333.28 K, 21000 kPa, x2 = 0.7549 | 790.4
333.28 K, 22000 kPa, x2 = 0.7549 | 793.1
333.28 K, 23000 kPa, x2 = 0.7549 | 795.7
333.28 K, 24000 kPa, x2 = 0.7549 | 798.4
333.28 K, 25000 kPa, x2 = 0.7549 | 800.8
333.3 K, 9000 kPa, x2 = 0.0955 | 736.6
333.3 K, 9000 kPa, x2 = 0.2526 | 739.5
333.3 K, 10000 kPa, x2 = 0.0955 | 737.4
333.3 K, 10000 kPa, x2 = 0.2526 | 740.4
333.3 K, 11000 kPa, x2 = 0.0955 | 738.3
333.3 K, 11000 kPa, x2 = 0.2526 | 741.4
333.3 K, 12000 kPa, x2 = 0.0955 | 739.1
333.3 K, 12000 kPa, x2 = 0.2526 | 742.3
333.3 K, 13000 kPa, x2 = 0.0955 | 739.9
333.3 K, 13000 kPa, x2 = 0.2526 | 743.1
333.3 K, 14000 kPa, x2 = 0.0955 | 740.8
333.3 K, 14000 kPa, x2 = 0.2526 | 744
333.3 K, 15000 kPa, x2 = 0.0955 | 741.6
333.3 K, 15000 kPa, x2 = 0.2526 | 744.9
333.3 K, 16000 kPa, x2 = 0.0955 | 742.3
333.3 K, 16000 kPa, x2 = 0.2526 | 745.7
333.3 K, 17000 kPa, x2 = 0.0955 | 743.1

From the NIST ThermoML archive (doi:10.1021/je400056z)
